Patent US6900202B2, “Di-substituted imineheterocyclic compounds” (priority 2000, dated 2005)

Target: T1, α1β1γδ subtype of nicotinic acetylcholine receptors (Rattus norvegicus, UniProt P25108)
T1 construct: The centrifugation at 100,000×G for 60 minutes at 4° C. yielded the rat muscle extract as supernatant
Experiment: biochemical
Format: binding
Conditions: % of control binding remaining

T1 sequence (P25108 21-457): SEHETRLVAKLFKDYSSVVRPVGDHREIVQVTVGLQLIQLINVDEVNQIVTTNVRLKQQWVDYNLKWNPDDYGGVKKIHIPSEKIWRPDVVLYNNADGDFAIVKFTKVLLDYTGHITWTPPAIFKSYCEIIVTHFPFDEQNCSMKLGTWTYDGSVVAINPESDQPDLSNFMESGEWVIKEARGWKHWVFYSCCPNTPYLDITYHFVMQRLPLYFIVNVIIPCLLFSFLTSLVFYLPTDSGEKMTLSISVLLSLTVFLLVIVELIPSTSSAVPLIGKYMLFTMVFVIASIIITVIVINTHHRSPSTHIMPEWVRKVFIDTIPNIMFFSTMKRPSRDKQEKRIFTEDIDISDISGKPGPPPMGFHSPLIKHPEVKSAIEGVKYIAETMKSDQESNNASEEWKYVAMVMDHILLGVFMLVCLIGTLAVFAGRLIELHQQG
T1 sequence (P25109 24-501, further chain): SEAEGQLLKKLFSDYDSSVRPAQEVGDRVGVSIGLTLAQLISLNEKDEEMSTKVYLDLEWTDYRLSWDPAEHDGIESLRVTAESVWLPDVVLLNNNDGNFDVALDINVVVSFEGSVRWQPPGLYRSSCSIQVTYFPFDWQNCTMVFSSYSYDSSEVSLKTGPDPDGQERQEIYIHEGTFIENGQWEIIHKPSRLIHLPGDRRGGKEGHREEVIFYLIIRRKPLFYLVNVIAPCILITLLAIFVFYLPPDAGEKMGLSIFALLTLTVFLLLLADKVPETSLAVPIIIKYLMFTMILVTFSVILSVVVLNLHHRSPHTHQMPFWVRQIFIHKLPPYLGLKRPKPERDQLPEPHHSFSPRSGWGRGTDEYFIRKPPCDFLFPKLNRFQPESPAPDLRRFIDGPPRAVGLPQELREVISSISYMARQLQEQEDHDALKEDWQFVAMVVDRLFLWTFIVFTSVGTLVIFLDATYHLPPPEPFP
T1 sequence (P25110 22-517, further chain): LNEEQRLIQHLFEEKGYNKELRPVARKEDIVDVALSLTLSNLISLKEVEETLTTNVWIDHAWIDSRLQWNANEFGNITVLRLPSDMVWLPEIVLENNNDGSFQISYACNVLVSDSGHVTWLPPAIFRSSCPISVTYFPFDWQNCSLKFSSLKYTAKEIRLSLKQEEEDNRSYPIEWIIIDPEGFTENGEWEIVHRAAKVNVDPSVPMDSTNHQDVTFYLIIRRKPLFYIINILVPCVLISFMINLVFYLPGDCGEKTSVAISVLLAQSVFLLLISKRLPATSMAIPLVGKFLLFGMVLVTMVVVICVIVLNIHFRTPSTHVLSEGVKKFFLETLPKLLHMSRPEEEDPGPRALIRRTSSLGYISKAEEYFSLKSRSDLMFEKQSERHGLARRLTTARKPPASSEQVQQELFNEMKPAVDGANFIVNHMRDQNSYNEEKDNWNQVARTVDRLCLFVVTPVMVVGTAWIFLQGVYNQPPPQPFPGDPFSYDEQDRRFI

SMILES: Clc1ccc(C/N=C2\OCCCN2Cc2ccc(Cl)nc2)cn1 [Compound 2, 3-(6-chloro-3-pyridyl)methyl-2-[(6-chloro-3-pyridyl)-methyl]imino-3,4,5,6-tetrahydro-2H-1,3-oxazine]
- control % of [3H]-α-Bgt binding at 100 μM of test compound (100 μM test compound): 95%
- control % of [3H]-α-Bgt binding at 1,000 μM of test compound (1,000 μM test compound): 56%
